Measurements published in US20190049436A1, “MODULATION OF ASYMMETRIC PROLIFERATION” (THE GENERAL HOSPITAL CORPORATION, priority 2012, published 2019).
Entries after “also recorded” stand apart in the source; their conditions may differ. Where a SMILES comes first, the peptide text is derived from it. The star is where a group is joined. Cbz = O=C(OCc1ccccc1)*

How the values were obtained:
[1] = system: HCT116 cells; assay: Confocal immunofluorescence scoring of asymmetrically dividing and G0-like (H3K9me2low/MCM2low/HES1high) cells; format: cell-based, human; details: for frequency of G0-like cells / frequency of asymmetrically dividing and G0-like cells: HCT116; for frequency of G0-like cells: proteasome inhibitor 1 μM for 24 h, doses that do not affect overall cell proliferation; for frequency of asymmetrically dividing and G0-like cells: small molecule for 72 h at the single dose (low, non-antiproliferative or target-suppressing), vs DMSO control; for production of G0-like cells: wild-type HCT116, target-suppressing doses, 72 hours or 144 hours
Experimental: (§1) Drug treatment in vitro. Cells were seeded onto collagen IV-coated coverslips, allowed to attach overnight, and treated with vehicle (DMSO) or AKT1/2 inhibitor (HCT116: 20μM; MCF7: 2 μM) (Sigma), MK2206 (HCT116: 10 μM; MCF7: 3 μM) (Selleck Chemicals), TORIN1 (HCT116: 0.5 μM; MCF7: 0.25 μM) (Tocris Bioscience), AZD8055 (HCT116: 0.7 μM; MCF7: 0.1 μM) (Selleck Chemicals), INK128 (HCT116: 0.05 μM; MCF7: 0.01 μM) (Active Biochem), Palomid 529 (HCT116: 10 μM; MCF7: 20 μM) (Selleck Chemicals), (Rapamycin (HCT116: 20 μM; MCF7: 20 μM)(Sigma), RAD-001 (HCT116: 10 μM; MCF7: 5 μM) (Selleck Chemicals), (AZD5363 (HCT116: 50 μM; MCF7: 5 μM) (Active Biochem), GDC0068 (HCT116: 50 μM; MCF7: 5 μM) (Active Biochem) for 72 h and Bortezemib (HCT116: 1 μM; MCF7: 4 μM) (Selleck Chemicals) MG-132 (vehicle: ethanol) (HCT116: 1 μM; MCF7: 10 μM), for 24 h.
(§2) Immunofluorescence staining. For bulk populations and for colonies, cells were grown directly on collagen IV-coated coverslips (Sigma). Cells were fixed in 3.7% formalin, permeabilized using 0.1% Triton X-100, and treated with 0.1% SDS. They were blocked in 1% BSA and then incubated with primary antibody (α-H3K9me2 (Abcam); α-MCM2 and α-Tubulin (Cell Signaling), α-Hes1 and α-TTC3 (Abnova)) diluted in blocking solution, washed, and incubated with the respective secondary antibody. Cells were mounted using hard-set mounting media containing DAPI (Vector Laboratories). All secondary antibodies were Alexa Fluor conjugates (488, 555, 568, 633, and 647) (Invitrogen). Immunofluorescence imaging (on a Nikon Eclipse Ti A1R-A1 confocal microscope) and live-cell imaging (on the Nikon Biostation CT platform) were performed as previously described (1).
(§3) Drug treatment in vitro. Cells were seeded onto collagen IV-coated coverslips, allowed to attach overnight, and treated with vehicle (DMSO) or AKT1/2 inhibitor (HCT116: 20 μM; MCF7: 2 μM) (Sigma), MK2206 (HCT116: 10 μM; MCF7: 3 μM) (Selleck Chemicals), TORIN1 (HCT116: 0.5 μM; MCF7: 0.25 μM) (Tocris Bioscience), AZD8055 (HCT116: 0.7 μM; MCF7: 0.1 μM) (Selleck Chemicals), INK128 (HCT116: 0.05 μM; MCF7: 0.01 μM) (Active Biochem), Palomid 529 (HCT116: 10 μM; MCF7: 20 μM) (Selleck Chemicals), (Rapamycin (HCT116: 20 μM; MCF7: 20 μM)(Sigma), RAD-001 (HCT116: 10 μM; MCF7: 5 μM) (Selleck Chemicals), BKM-120 (HCT116: 1.5 μM; MCF7: 0.5 μM) (Active Biochem), FAK inhibitors (PF-562271: 1 μM Pfizer) and NVP-TAE226 : 1 μM (Novartis), for both cell lines) for 72 h and Bortezemib (HCT116: 1 μM; MCF7: 4 μM) (Selleck Chemicals) MG-132 (vehicle: ethanol) (HCT116: 1 μM; MCF7: 10 μM), for 24 h.
as §2, with “(a-H3K9me2” for “(α-H3K9me2”, “A1R-A1™” for “A1R-A1”, “described7. Slides coated with Type-I collagen (control) and AlignCol™ woven with large collagen fibers (100-200 nm) (Advanced Biomatrix) were incubated for 1 hour in 70% ethanol and then washed with PBS. Cells were then plated on the slides and processed for immunofluorescence.” for “described (1).”
(§4) Antibody activation and inhibition. […]

[2] = system: MCF7 cells; assay: as above; format: cell-based, human; details: for frequency of G0-like cells / frequency of asymmetrically dividing and G0-like cells: MCF7; for frequency of G0-like cells: proteasome inhibitor for 24 h (Bortezomib 4 μM, MG-132 10 μM), doses that do not affect overall cell proliferation; for frequency of asymmetrically dividing and G0-like cells: small molecule for 72 h at the single dose (low, non-antiproliferative or target-suppressing), vs DMSO control; for production of G0-like cells: wild-type MCF7, target-suppressing doses, 72 hours or 144 hours
Experimental: as §1, §2, §3
as §2, with “(a-H3K9me2” for “(α-H3K9me2”, “A1R-A1™” for “A1R-A1”, “described7. Slides coated with Type-I collagen (control) and AlignCol™ woven with large collagen fibers (100-200 nm) (Advanced Biomatrix) were incubated for 1 hour in 70% ethanol and then washed with PBS. Cells were then plated on the slides and processed for immunofluorescence.” for “described (1).”
as §4

[3] = system: HCT116 cells; assay: Tumor formation in nude mice by cells pre-treated ex vivo with AKT1/2 inhibitor
Experimental: (§5) Xenografting & tumor propagation in vivo. For in vivo RICTOR knockdown experiments, 5×10^5 cells (MCF7, HCT116, A375, PC9, MDA-MB-231 cell lines) carrying either doxycycline-inducible non-silencing or RICTOR-targeting shRNAs (120392, 225915) were injected subcutaneously into the flanks of 5-6 week old, female nude mice. The mice were given doxycycline in water at 20 mg/ml for hairpin induction. For induction of asymmetrically dividing cells and slow proliferators, cells were treated with AKT1/2 inhibitor and DMSO (vehicle) for 72 h and were harvested at 60-70% confluence, and then counted and washed twice in PBS and resuspended in 1:1 Media: Matrigel (BD Biosciences). 5×10^6, 5×10^5, 5×10^4, 5×10^3 and 5×10^2 cells respectively were injected subcutaneously into the flanks of 5-6 week old, female nude mice (Nude/Nude) (Charles River Labs). For all experiments, growing tumors were measured weekly by caliper, and mice were killed after the tumor size reached 1 cm^3. Mouse experiments were carried out under a Massachusetts General Hospital Institutional Review Board-approved protocol.
(§6) Tumor studies in vivo. For TS2/16 antibody treatment studies in vivo, we injected 5×10^5 cells (A375, MDA-MB-231, PC9, HCT116, MCF7) subcutaneously into the flanks of 5-6 week old, female nude mice (Nude/Nude) (Charles River Labs). Once the tumors were palpable, mice were injected i.p. with TS2/16 ([…] at 4 mg/ml/wk×5 weeks) and the tumors were measured. For RICTOR knockdown experiments in vivo, we injected 5×10^5 cells (A375, MDA-MB-231, PC9, HCT116, MCF7) carrying either doxycycline-inducible non-silencing or RICTOR-targeting shRNAs (120392, 225915) subcutaneously into the flanks of 5-6 week old, female nude mice (Nude/Nude). The mice were given doxycycline in water at 20 mg/ml for hairpin induction starting immediately after implantation. For induction of slow proliferators, cells were treated with AKT1/2 inhibitor and DMSO (vehicle) for 72 h and were harvested at 60-70% confluence, and then counted and washed twice in PBS and resuspended in 1:1 Media: Matrigel (BD Biosciences). We then injected 5×106, 5×105, and 5×10^4 cells respectively subcutaneously into the flanks of 5-6 week old, female nude mice. For all experiments, growing tumors were measured weekly by caliper, and mice were killed when tumors reached approximately 1 cm3 in size. Animal experiments were carried out under a Massachusetts General Hospital Institutional Review Board-approved protocol.

[4] = system: MCF7 cells; assay: as above
Experimental: as §5, §6

[5] = system: cancer cells; details: cited from earlier work

Compound	frequency of asymmetrically dividing and G0-like cells [1]	frequency of asymmetrically dividing and G0-like cells [2]	other results
CC(C)C[C@H](NC(=O)[C@H](Cc1ccccc1)NC(=O)c1cnccn1)B(O)O [Bortezomib]	–	–	frequency of G0-like cells [1]: significantly reduced; frequency of G0-like cells ([1]; listed as bortezomib): reduced; frequency of G0-like cells [2]: significantly reduced; frequency of G0-like cells ([2]; listed as bortezomib): reduced
O=c1[nH]c2ccccc2n1C1CCN(Cc2ccc(-c3nc4cc5[nH]cnc5cc4nc3-c3ccccc3)cc2)CC1 [AKT1/2]	dramatically increases	dramatically increases	tumor size, larger on average than tumors from untreated cell populations ([3]; HCT116 pre-treated 72 h, implanted in nude mice): 50%; engraftment ([3]; HCT116 pre-treated 72 h with low dose, implanted s.c. in nude mice over a range of cell numbers, vs DMSO-treated cells): significantly increased; also recorded: significantly promoted; tumor size over time ([3]; HCT116 pre-treated with low dose ex vivo, s.c. in nude mice, 100-fold cell number range): notably larger; tumor size, larger on average than tumors from untreated cell populations ([4]; MCF7 pre-treated 72 h, implanted in nude mice): 50%; engraftment ([4]; MCF7 pre-treated 72 h with low dose, implanted s.c. in nude mice over a range of cell numbers, vs DMSO-treated cells): significantly increased; also recorded: significantly promoted; tumor size over time ([4]; MCF7 pre-treated with low dose ex vivo, s.c. in nude mice, 100-fold cell number range): notably larger; effect on cancer cells at higher doses [5]: kills cancer cells
COc1ccc(COc2cc3oc(=O)c4cc(C(C)O)ccc4c3cc2OC)cc1 (centres unmarked) [Palomid-529]	significantly reduced	significantly reduced	–
COc1ccc(-c2ccc3c(N4CCOC[C@@H]4C)nc(N4CCOC[C@@H]4C)nc3n2)cc1CO [AZD8055]	significantly reduced	significantly reduced	–
CC(C)C[C@@H](C=O)NC(=O)[C@H](CC(C)C)NC(=O)[C@H](CC(C)C)NC(=O)OCc1ccccc1 [MG-132] (Cbz-Leu-Leu-Leu-aldehyde)	–	–	frequency of G0-like cells [1]: significantly reduced; frequency of G0-like cells [2]: significantly reduced
NC1(c2ccc(-c3nc4ccn5c(=O)[nH]nc5c4cc3-c3ccccc3)cc2)CCC1 [MK2206]	dramatically increases	dramatically increases	–
CC(C)n1nc(-c2ccc3oc(N)nc3c2)c2c(N)ncnc21 [INK-128]	significantly reduced	significantly reduced	–
CC(C)NC[C@@H](C(=O)N1CCN(c2ncnc3c2[C@H](C)C[C@H]3O)CC1)c1ccc(Cl)cc1 [GDC0068]	did not reduce	did not reduce	–
Nc1cc(C(F)(F)F)c(-c2cc(N3CCOCC3)nc(N3CCOCC3)n2)cn1 [BKM-120]	not suppressed	not suppressed	production of G0-like cells [1]: not suppressed; production of G0-like cells [2]: not suppressed
CCC(=O)N1CCN(c2ccc(-n3c(=O)ccc4cnc5ccc(-c6cnc7ccccc7c6)cc5c43)cc2C(F)(F)F)CC1 [TORIN1]	significantly reduced	significantly reduced	–
CNC(=O)c1ccccc1Nc1nc(Nc2ccc(N3CCOCC3)cc2OC)ncc1Cl [NVP-TAE226]	increased	increased	–
AZD5363	did not reduce	did not reduce	–
CO[C@H]1C[C@@H]2CC[C@@H](C)[C@@](O)(O2)C(=O)C(=O)N2CCCC[C@H]2C(=O)O[C@H]([C@H](C)C[C@@H]2CC[C@@H](OCCO)[C@H](OC)C2)CC(=O)[C@H](C)/C=C(\C)[C@@H](O)[C@@H](OC)C(=O)[C@H](C)C[C@H](C)/C=C/C=C/C=C/1C [RAD-001]	did not suppress; also recorded: not suppressed	did not suppress; also recorded: not suppressed	production of G0-like cells [1]: not suppressed; production of G0-like cells [2]: not suppressed
CN(c1ncccc1CNc1nc(Nc2ccc3c(c2)CC(=O)N3)ncc1C(F)(F)F)S(C)(=O)=O [PF-562271]	increased	increased	–
